Like-named read-outs stand apart in the source and are kept apart here.

By inhibition is commonly meant the change of the read-out against control, counted positive when it falls. By % Inhibition is commonly meant how much of the control response was suppressed. Read a high % Inhibition as a response far below the control.

This assay deals with T1, PARK7 (Homo sapiens, UniProt Q99497).
T1 sequence (Q99497 1-189): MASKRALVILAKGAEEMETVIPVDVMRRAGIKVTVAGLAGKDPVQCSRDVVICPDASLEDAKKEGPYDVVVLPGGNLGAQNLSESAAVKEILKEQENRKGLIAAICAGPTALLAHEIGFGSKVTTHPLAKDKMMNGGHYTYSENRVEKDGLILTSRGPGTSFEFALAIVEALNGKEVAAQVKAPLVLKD
Description: High-throughput screen of the crude compound library, PARK7 fluorescence polarization (FP) assay with FP reagent JYQ-107. The conditions noted are these: for inhibition at 1.25 µM: read-out: HTS FP assay %Inhibition (1.25 µM). The class given is biochemical. The text has this: Therefore, taking JYQ-88 as a starting point, we conducted an optimization to further improve the molecule in terms of inhibitory potency, specificity, and cellular uptake. […] First, a small tailored library was designed and synthesized to investigate whether the introduction of larger, hydrophilic substituents on JYQ-88 would enhance the interaction with the PARK7 pocket. […] The second approach involved the generation of a compound library containing diverse substituents at the azidomethyl position. […] We next performed a high-throughput screen of this crude compound library using our in-house developed PARK7 fluorescence polarization (FP) assay.[15]
Background: Fluorescence polarisation rises when a labelled molecule tumbles more slowly, as on binding a larger partner.

[1] abbreviates: 1.25 µM, crude compound library.
The mark [2] stands for this setting: 1.25 µM, crude compound library, FP reagent JYQ-107.

Regarding `N#CN1CC[C@@H](C(=O)Nc2nc3c(s2)CN(C(=O)c2ccc(-c4cccs4)[nH]c2=O)CC3)C1` [compound 200], under setting [1], the inhibition at 1.25 µM was 72.4%. Take `N#CN1CC[C@@H](C(=O)Nc2nc3c(s2)CN(C(=O)Cc2ccc(S(=O)(=O)N4CCOCC4)s2)CC3)C1` [compound 65]: the inhibition at 1.25 µM under setting [1] was 87%.

As to `N#CN1CC[C@@H](C(=O)Nc2nc3c(s2)CN(C(=O)c2cnc(-c4ccco4)s2)CC3)C1` [compound 104], the inhibition at 1.25 µM under setting [1] was determined as 62.8%. Regarding `Cn1cc(-c2cc[nH]n2)c(C(=O)N2CCc3nc(NC(=O)[C@@H]4CCN(C#N)C4)sc3C2)n1` [compound 187], the inhibition at 1.25 µM under setting [1] came out at 59.2%. On the same count and under the same terms, the value for `N#CN1CC[C@@H](C(=O)Nc2nc3c(s2)CN(C(=O)Cc2csc(COc4ccc(Cl)cc4)n2)CC3)C1` [compound 13] was 75.4%; that for `N#CN1CC[C@@H](C(=O)Nc2nc3c(s2)CN(C(=O)c2ccc(-c4cnco4)cc2)CC3)C1` [compound 171] was 77.5%. For the molecule `CC(=O)CCC(=O)N1CCc2nc(NC(=O)[C@@H]3CCN(C#N)C3)sc2C1` [compound 443], the inhibition at 1.25 µM under setting [2] is 72.8%. Take `N#CN1CC[C@@H](C(=O)Nc2nc3c(s2)CN(C(=O)C2CCCCN2S(=O)(=O)c2ccc(Br)s2)CC3)C1` (stereo partly drawn) [compound 377]: the inhibition at 1.25 µM under setting [2] was found to be 76.2%. On to `CCC(C(=O)N1CCc2nc(NC(=O)[C@@H]3CCN(C#N)C3)sc2C1)n1nnc(-c2ccsc2)n1` (stereo partly drawn) [compound 25], for which the inhibition at 1.25 µM under setting [1] stood at 65.2%. On to `N#CN1CC[C@@H](C(=O)Nc2nc3c(s2)CN(C(=O)C(c2ccccc2)n2cnnn2)CC3)C1` (stereo partly drawn) [compound 141], for which the inhibition at 1.25 µM under setting [1] amounted to 59.5%. Consider `CC(C)(C)OC(=O)NC1(C(=O)N2CCc3nc(NC(=O)[C@@H]4CCN(C#N)C4)sc3C2)CC1` [compound 447], for which the inhibition at 1.25 µM under setting [2] stood at 68.7%. On to `N#CN1CC[C@@H](C(=O)Nc2nc3c(s2)CN(C(=O)c2cc(-c4ccc(Cl)cc4)oc2C(F)(F)F)CC3)C1` [compound 49], for which the inhibition at 1.25 µM under setting [1] came to 70.8%.

Regarding `N#CN1CC[C@@H](C(=O)Nc2nc3c(s2)CN(C(=O)c2noc(-c4cccc(Cl)c4)n2)CC3)C1` [compound 85], the inhibition at 1.25 µM under setting [1] was determined as 63%. As to `N#CN1CC[C@@H](C(=O)Nc2nc3c(s2)CN(C(=O)Cc2ccc([N+](=O)[O-])cc2)CC3)C1` [compound 399], under setting [2], the inhibition at 1.25 µM was determined as 58.2%. Take `N#CN1CC[C@@H](C(=O)Nc2nc3c(s2)CN(C(=O)c2cccc(N4CCOCC4)n2)CC3)C1` [compound 277]: the inhibition at 1.25 µM under setting [1] stood at 64.6%. Same read-out and setting: the figure for `N#CN1CC[C@@H](C(=O)Nc2nc3c(s2)CN(C(=O)c2cncc(N4CCCC4)n2)CC3)C1` [compound 182] is 81.9%; for `N#CN1CC[C@@H](C(=O)Nc2nc3c(s2)CN(C(=O)C(OC2CCOCC2)c2ccccc2)CC3)C1` (stereo partly drawn) [compound 323] it is 67.7%.

Take `N#CN1CC[C@@H](C(=O)Nc2nc3c(s2)CN(C(=O)CNC(=O)c2ccccc2)CC3)C1` [compound 406]: under setting [2], the inhibition at 1.25 µM stood at 82.4%.

`N#CN1CC[C@@H](C(=O)Nc2nc3c(s2)CN(C(=O)c2cccc4c2-c2ccccc2C4)CC3)C1` [compound 425]: the inhibition at 1.25 µM under setting [2] is 84%. As to `N#CN1CC[C@@H](C(=O)Nc2nc3c(s2)CN(C(=O)c2ccc(/N=N/c4ccccc4)cc2)CC3)C1` [compound 403], under setting [2], the inhibition at 1.25 µM is 84.3%. The same measure, in the same setting: the value for `N#CN1CC[C@@H](C(=O)Nc2nc3c(s2)CN(C(=O)c2c(F)c(F)c(O)c(F)c2F)CC3)C1` [compound 442] was 51.4%.

Turning to `N#CN1CC[C@@H](C(=O)Nc2nc3c(s2)CN(C(=O)c2csc(-c4cnccn4)n2)CC3)C1` [compound 58], under setting [1], the inhibition at 1.25 µM is 74.4%. As for `N#CN1CC[C@@H](C(=O)Nc2nc3c(s2)CN(C(=O)c2cccc(C=O)c2)CC3)C1` [compound 433], the inhibition at 1.25 µM under setting [2] is 81.4%. As to `N#CN1CC[C@@H](C(=O)Nc2nc3c(s2)CN(C(=O)c2cnc(Cc4ccc(F)cc4)s2)CC3)C1` [compound 298], the inhibition at 1.25 µM under setting [1] amounted to 79.5%. Take `CNS(=O)(=O)c1ccc(-c2ccccc2OC(F)(F)F)c(C(=O)N2CCc3nc(NC(=O)[C@@H]4CCN(C#N)C4)sc3C2)c1` [compound 352]: under setting [2], the inhibition at 1.25 µM is 72%. On to `N#CN1CC[C@@H](C(=O)Nc2nc3c(s2)CN(C(=O)c2ccc(COc4ccccc4Br)cc2)CC3)C1` [compound 123], for which, under setting [1], the inhibition at 1.25 µM amounted to 67.6%.

Regarding `N#CN1CC[C@@H](C(=O)Nc2nc3c(s2)CN(C(=O)c2cc(-c4ccncc4)on2)CC3)C1` [compound 210], the inhibition at 1.25 µM under setting [1] was determined as 63.9%. On the same count and under the same terms, the value for `N#CN1CC[C@@H](C(=O)Nc2nc3c(s2)CN(C(=O)C2CC=CCC2C(=O)N2CCOCC2)CC3)C1` (stereo partly drawn) [compound 276] was 74.3%; that for `COc1cc(C(=O)N2CCc3nc(NC(=O)[C@@H]4CCN(C#N)C4)sc3C2)ccc1OCc1c(C)noc1C` [compound 63] was 72.7%. Take `N#CN1CC[C@@H](C(=O)Nc2nc3c(s2)CN(C(=O)c2cc([N+](=O)[O-])ccc2Br)CC3)C1` [compound 441]: the inhibition at 1.25 µM under setting [2] stood at 81.4%.

As to `N#CN1CC[C@@H](C(=O)Nc2nc3c(s2)CN(C(=O)Cc2ccc(OCc4ccccn4)cc2)CC3)C1` [compound 353], the inhibition at 1.25 µM under setting [2] came out at 73.2%. Regarding `N#CN1CC[C@@H](C(=O)Nc2nc3c(s2)CN(C(=O)c2ccnc(N4CCOCC4)n2)CC3)C1` [compound 180], under setting [1], the inhibition at 1.25 µM was determined as 87.3%. Turning to `COc1cc(CC(=O)N2CCc3nc(NC(=O)[C@@H]4CCN(C#N)C4)sc3C2)ccc1O` [compound 437], the inhibition at 1.25 µM under setting [2] was found to be 73.6%. Take `N#CN1CC[C@@H](C(=O)Nc2nc3c(s2)CN(C(=O)c2ccc(-c4ccncc4)[nH]c2=O)CC3)C1` [compound 330]: the inhibition at 1.25 µM under setting [1] is 64.2%.

Consider `Cn1cc(NS(=O)(=O)c2ccsc2C(=O)N2CCc3nc(NC(=O)[C@@H]4CCN(C#N)C4)sc3C2)cn1` [compound 53], for which the inhibition at 1.25 µM under setting [1] was found to be 64.9%.

In the case of `N#CN1CC[C@@H](C(=O)Nc2nc3c(s2)CN(C(=O)Cc2ccc(-n4cccc4)cc2)CC3)C1` [compound 309], under setting [1], the inhibition at 1.25 µM was determined as 80.2%. Consider `N#CN1CC[C@@H](C(=O)Nc2nc3c(s2)CN(C(=O)c2occc2COc2ccccc2)CC3)C1` [compound 111], for which, under setting [1], the inhibition at 1.25 µM was found to be 82.9%. On to `N#CN1CC[C@@H](C(=O)Nc2nc3c(s2)CN(C(=O)c2cnccn2)CC3)C1` [compound 468], for which, under setting [2], the “HTS FP assay %Inhibition (1.25 µM)” value is reported as 76.5%. Also, the “% Inhibition” value (HTS of crude compound library, sheet "SMILES+%Inh HTS") is on record as 76.5%. Turning to `N#CN1CC[C@@H](C(=O)Nc2nc3c(s2)CN(C(=O)c2ccc(=O)n(Cc4ccccc4)n2)CC3)C1` [compound 127], the inhibition at 1.25 µM under setting [1] amounted to 83.8%. Take `CC(=O)CCCC(=O)N1CCc2nc(NC(=O)[C@@H]3CCN(C#N)C3)sc2C1` [compound 431]: the inhibition at 1.25 µM under setting [2] came out at 72.4%. Regarding `N#CCC(=O)N1CCc2nc(NC(=O)[C@@H]3CCN(C#N)C3)sc2C1` [compound 457], the inhibition at 1.25 µM under setting [2] is 49.3%. Consider `N#CN1CC[C@@H](C(=O)Nc2nc3c(s2)CN(C(=O)c2ccnc(C4CC4)n2)CC3)C1` [compound 264], for which, under setting [1], the inhibition at 1.25 µM was 67.7%. For the molecule `Cn1cc(-c2nc(C(=O)N3CCc4nc(NC(=O)[C@@H]5CCN(C#N)C5)sc4C3)cs2)cn1` [compound 360], under setting [2], the inhibition at 1.25 µM was 72.2%. For `N#CN1CC[C@@H](C(=O)Nc2nc3c(s2)CN(C(=O)c2cnoc2-c2cccs2)CC3)C1` [compound 20], the inhibition at 1.25 µM under setting [1] was 73%. With `N#CN1CC[C@@H](C(=O)Nc2nc3c(s2)CN(C(=O)c2cc(-c4cccc(Cl)c4)no2)CC3)C1` [compound 453], under setting [2], the inhibition at 1.25 µM turned out to be 52.8%. On to `CCn1cc(S(=O)(=O)N2CCC(C(=O)N3CCc4nc(NC(=O)[C@@H]5CCN(C#N)C5)sc4C3)CC2)cn1` [compound 38], for which the inhibition at 1.25 µM under setting [1] was found to be 69%. For the molecule `N#CN1CC[C@@H](C(=O)Nc2nc3c(s2)CN(C(=O)c2ccc(-c4ccccc4)o2)CC3)C1` [compound 166], the inhibition at 1.25 µM under setting [1] came to 87.3%. Take `N#CN1CC[C@@H](C(=O)Nc2nc3c(s2)CN(C(=O)c2cccnc2-n2cccn2)CC3)C1` [compound 348]: the inhibition at 1.25 µM under setting [2] worked out at 71.9%.

As for `CN(C)c1ccc(C(=O)N2CCc3nc(NC(=O)[C@@H]4CCN(C#N)C4)sc3C2)cc1` [compound 449], the inhibition at 1.25 µM under setting [2] was 82.9%. `Cc1ccc(S(=O)(=O)NCCc2ccc(F)cc2)cc1C(=O)N1CCc2nc(NC(=O)[C@@H]3CCN(C#N)C3)sc2C1` [compound 247]: the inhibition at 1.25 µM under setting [1] amounted to 86.9%.

As for `N#CN1CC[C@@H](C(=O)Nc2nc3c(s2)CN(C(=O)c2cc(S(=O)(=O)Nc4cccc(F)c4)ccc2F)CC3)C1` [compound 354], the inhibition at 1.25 µM under setting [2] stood at 72.5%. Turning to `N#CN1CC[C@@H](C(=O)Nc2nc3c(s2)CN(C(=O)c2ncsc2Cc2ccccc2)CC3)C1` [compound 361], the inhibition at 1.25 µM under setting [2] came out at 82.9%. For the molecule `Cn1nc(-c2cccnc2)cc1C(=O)N1CCc2nc(NC(=O)[C@@H]3CCN(C#N)C3)sc2C1` [compound 184], the inhibition at 1.25 µM under setting [1] came to 86.9%. On the same count and under the same terms, the figure for `N#CN1CC[C@@H](C(=O)Nc2nc3c(s2)CN(C(=O)C2CCOC4(CCC4)C2)CC3)C1` (stereo partly drawn) [compound 136] is 80.8%; for `Cn1nc(C(=O)N2CCOCC2)cc1C(=O)N1CCc2nc(NC(=O)[C@@H]3CCN(C#N)C3)sc2C1` [compound 134] it is 87.6%; for `Cc1onc(-c2ccncc2)c1C(=O)N1CCc2nc(NC(=O)[C@@H]3CCN(C#N)C3)sc2C1` [compound 224] it is 73.5%.

The values above are taken from paper PMC11129182, “Development of Inhibitors, Probes, and PROTAC Provides a Complete Toolbox to Study PARK7 in the Living Cell” (Journal of Medicinal Chemistry, 2024).
